ChEMBL document CHEMBL2424638, “6-Bromo-8-(4-[(3)H]methoxybenzamido)-4-oxo-4H-chromene-2-carboxylic Acid: a powerful tool for studying orphan G protein-coupled receptor GPR35” (J Med Chem, 2013)

Key:
[1] = target: T1, G-protein coupled receptor 35 (Homo sapiens, UniProt Q9HC97); assay: biochemical; format: cell-based, CHO
Description: Displacement of [3H]PSB-13253 from human recombinant GPR35 exprssed in CHO cells by liquid scintillation counting analysis

[2] = target: T1, G-protein coupled receptor 35; assay: Agonist activity at C-terminal beta-galactosidase tagged human recombinant GPR35 expressed in CHO cells after 90 mins by beta-arrestin recruitment assay; format: cell-based
[3] = target: T1, G-protein coupled receptor 35; assay: Agonist activity at C-terminal beta-galactosidase tagged human recombinant GPR35 expressed in CHO cells at 100 uM after 90 mins by beta-arrestin recruitment assay relative to zaprinast; format: cell-based
[4] = target: T1, G-protein coupled receptor 35; assay: Agonist activity at human GPR35 expressed in CHO cells assessed as increase in intracellular Ca2+ measured over 20 secs by Aequorin assay; format: functional, cell-based
[5] = target: T1, G-protein coupled receptor 35; assay: Agonist activity at human GPR35 expressed in HEK293T cells at 5 uM by EYPF-based beta-arrestin-2 luciferase reporter gene assay; format: cell-based, HEK-293T
[6] = target: T1, G-protein coupled receptor 35; assay: Antagonist activity at human Gal4-VP16 fused GPR35 expressed in human U2OS cells assessed as beta arrestin translocation by reporter gene assay; format: cell-based
[7] = target: T1, G-protein coupled receptor 35; assay: Antagonist activity at human GPR35 expressed in human HT29 cells after 1 hr by DMR assay; format: cell-based; settings: ht-29
[8] = target: T1, G-protein coupled receptor 35; assay: Antagonist activity at C-terminal beta-galactosidase tagged human recombinant GPR35 expressed in CHO cells after 90 mins by beta-arrestin recruitment assay; format: cell-based
[9] = target: T1, G-protein coupled receptor 35; assay: Competitive binding affinity to human recombinant GPR35 expressed in CHO cells by scintillation counting analysis in presence of CaCl2; format: cell-based
[10] = target: T1, G-protein coupled receptor 35; assay: Binding affinity to human recombinant GPR35 expressed in CHO cells by scintillation counting analysis in absence of MgCl2, NaCl, CaCl2; format: cell-based
[11] = target: T1, G-protein coupled receptor 35; assay: Binding affinity to human recombinant GPR35 expressed in CHO cells after 150 mins by liquid scintillation counting analysis
[12] = target: T1, G-protein coupled receptor 35; assay: Competitive binding affinity to human recombinant GPR35 expressed in CHO cells by scintillation counting analysis in presence of MgCl2; format: cell-based
[13] = target: T1, G-protein coupled receptor 35; assay: Displacement of [3H]PSB-13253 from human recombinant GPR35 exprssed in CHO cells at 10 uM by liquid scintillation counting analysis; format: cell-based
[14] = target: T1, G-protein coupled receptor 35; assay: Agonist activity at human GPR35 by DMR assay
[15] = target: T1, G-protein coupled receptor 35; assay: Agonist activity at human GPR35 by Ca+2 release assay
[16] = target: T1, G-protein coupled receptor 35; settings: CHO, 5 nM
[17] = target: T1, G-protein coupled receptor 35; settings: CHO, 5 nM; remark: listed apart in the source
[18] = target: T1, G-protein coupled receptor 35; settings: CHO, 5 nM; remark: listed apart in the source
[19] = target: T1, G-protein coupled receptor 35; settings: CHO, 5 nM; remark: listed apart in the source
[20] = target: T1, G-protein coupled receptor 35; settings: CHO, 5 nM; remark: listed apart in the source

T1 sequence (Q9HC97 whole entry): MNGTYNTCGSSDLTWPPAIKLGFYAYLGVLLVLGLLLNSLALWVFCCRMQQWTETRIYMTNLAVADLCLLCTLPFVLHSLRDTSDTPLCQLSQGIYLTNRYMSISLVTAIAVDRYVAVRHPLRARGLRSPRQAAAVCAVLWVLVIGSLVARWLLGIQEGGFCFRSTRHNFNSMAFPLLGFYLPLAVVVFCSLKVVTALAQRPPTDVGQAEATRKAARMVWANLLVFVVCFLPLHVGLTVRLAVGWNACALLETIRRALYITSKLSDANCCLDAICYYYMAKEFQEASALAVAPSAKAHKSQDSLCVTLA

Compound	Ki [1]	further results
O=C(Nc1cccc2c(=O)cc(C(=O)O)oc12)c1ccc(OCC2CC2)cc1	3710 nM	–
Nc1cc(Br)cc2c(=O)cc(C(=O)O)oc12	3010 nM	–
Cc1cccc(C(=O)Nc2cc(Cl)cc3c(=O)cc(C(=O)O)oc23)c1	250 nM	–
O=C(O)c1cc(=O)c2ccccc2[nH]1 [TRANSTORINE]	137000 nM	EC50 [4]: 39200 nM
O=C(O)COc1ccc(/C=C2\SC(=O)NC2=O)cc1	50.8 nM	EC50 [2]: 349 nM; Emax [3]: 107%; EC50 [5]: 1400 nM
COc1ccc(C(=O)Nc2cc(OC)cc3c(=O)cc(C(=O)O)oc23)cc1	20.5 nM	EC50 [2]: 25.5 nM; Emax [3]: 124%
CCCOc1ccc(C(=O)Nc2cccc3c(=O)cc(C(=O)O)oc23)cc1	8060 nM	–
O=C(Nc1cccc2c(=O)cc(C(=O)O)oc12)c1cccc([N+](=O)[O-])c1	4390 nM	–
O=C(Nc1cccc2c(=O)cc(C(=O)O)oc12)c1ccccc1	3290 nM	–
CCOC(=O)c1cc(=O)c2cc(F)cc(NC(=O)c3ccc(OC)cc3)c2o1	198 nM	–
NS(=O)(=O)c1cc(C(=O)O)c(NCc2ccco2)cc1Cl	–	Emax [3]: 96%
O=C(Nc1cccc2c(=O)cc(C(=O)O)oc12)c1ccc2ccccc2c1	714 nM	–
Cc1ccc(C(=O)Nc2cccc3c(=O)cc(C(=O)O)oc23)cc1	697 nM	–
COC(=O)c1cnn(-c2ccc(F)cc2F)c1/C=N/NC(=S)NC(C)(C)C	42.2 nM	IC50 [6]: 200 nM; IC50 [7]: 10400 nM; IC50 [8]: 574 nM
CCC(=O)Nc1cccc2c(=O)cc(C(=O)O)oc12	6770 nM	–
O=C(O)c1cc(=O)c2cccc(NC(=O)C3CCCCC3)c2o1	3580 nM	–
O=C(O)c1cc(=O)c2cc(F)cc(NC(=O)c3ccc(Cl)cc3Cl)c2o1	4.12 nM	–
[3H]C([3H])([3H])Oc1ccc(C(=O)Nc2cc(Br)cc3c(=O)cc(C(=O)O)oc23)cc1	–	Kd [9]: 5.92 nM; Kd [10]: 115 nM; Kd [11]: 5.27 nM; Kd [12]: 5.65 nM

Compound	Ki [1]	further results
O=C(O)c1cc(=O)c2cc(F)cc(NC(=O)c3cccc(Cl)c3Cl)c2o1	119 nM	–
O=C(Nc1cccc2c(=O)cc(C(=O)O)oc12)c1ccc(Br)cc1	233 nM	–
O=C(O)c1cc(=O)c2cccc([N+](=O)[O-])c2o1	13600 nM	–
COc1ccc(C(=O)Nc2cccc3c(=O)cc(C(=O)O)oc23)cc1	221 nM	–
Cc1cccc(C(=O)Nc2cccc3c(=O)cc(C(=O)O)oc23)c1	4780 nM	–
O=C(Nc1cc(Cl)cc2c(=O)cc(C(=O)O)oc12)c1ccc([N+](=O)[O-])cc1	183 nM	–
CC(=O)Nc1cccc2c(=O)cc(C(=O)O)oc12	18500 nM	–
O=C(O)c1cc2ccccc2c(Cc2c(O)c(C(=O)O)cc3ccccc23)c1O	–	Emax [3]: 95%
COC(=O)CC(=O)Nc1cccc2c(=O)cc(C(=O)O)oc12	18600 nM	–
O=C(Nc1cccc2c(=O)cc(C(=O)O)oc12)c1ccc2ccccc2n1	691 nM	–
Nc1cccc2c(=O)cc(C(=O)O)oc12	–	inhibition [13]: 7%
O=C(Nc1cccc2c(=O)cc(C(=O)O)oc12)c1ccc(C(F)(F)F)cc1	10300 nM	–
O=C(Cc1ccccc1)Nc1cccc2c(=O)cc(C(=O)O)oc12	2720 nM	–
O=C(Nc1cc(F)cc2c(=O)cc(C(=O)O)oc12)c1ccc(Cl)c(Cl)c1	11.5 nM	–
O=c1oc2ccccc2c(O)c1Cc1c(O)c2ccccc2oc1=O [DICUMAROL]	39 nM	EC50 [2]: 9780 nM; Emax [3]: 107%; EC50 [5]: 1300 nM
CC1=C(C#N)C(=C(C#N)C#N)OC1(C)c1ccc(Cl)c(Cl)c1 (stereo unspecified)	655 nM	–
O=C(O)c1cc(=O)c2c(OCC(O)COc3cccc4oc(C(=O)O)cc(=O)c34)cccc2o1 [CROMOLYN]	2340 nM	Emax [3]: 119%; EC50 [14]: 520 nM; EC50 [15]: 210 nM

The next lines start with results.

Ki [1]	Compound	further results
138 nM	O=C(Nc1cc(Cl)cc2c(=O)cc(C(=O)O)oc12)c1ccccc1	–
0.938 nM	O=C(O)c1cc(=O)c2cc(Br)cc(NC(=O)c3ccc(Cl)cc3Cl)c2o1	–
148 nM	N#Cc1ccc(C(=O)Nc2cc(Br)cc3c(=O)cc(C(=O)O)oc23)cc1	–
42.8 nM	COc1ccc(C(=O)Nc2cc(C)cc3c(=O)cc(C(=O)O)oc23)cc1	EC50 [2]: 37.7 nM; Emax [3]: 118%
81.6 nM	O=C(Nc1cc(Br)cc2c(=O)cc(C(=O)O)oc12)c1ccccc1	–
1.12 nM	COc1ccc(C(=O)Nc2cc(Br)cc3c(=O)cc(C(=O)O)oc23)c(Cl)c1	–
0.589 nM	COc1cc(F)c(C(=O)Nc2cc(Br)cc3c(=O)cc(C(=O)O)oc23)c(F)c1	EC50 [2]: 5.54 nM; Emax [3]: 119%
15 nM	O=C(Nc1cc(Br)cc2c(=O)cc(C(=O)O)oc12)c1ccc2c(c1)OCO2	–
1.64 nM	COc1ccc(C(=O)Nc2cc(Br)cc3c(=O)cc(C(=O)O)oc23)cc1F	EC50 [2]: 4.37 nM; Emax [3]: 120%
25.7 nM	COc1ccc(C(=O)Nc2cc(Br)cc3c(=O)cc(C(=O)O)oc23)cn1	–
4.79 nM	O=C(Nc1cc(Br)cc2c(=O)cc(C(=O)O)oc12)c1ccc(Cl)cc1	–
5.5 nM	COc1ccc(C(=O)Nc2cc(Cl)cc3c(=O)cc(C(=O)O)oc23)cc1	–
56.8 nM	COc1ccc(C(=O)Nc2cc(Br)cc3c(=O)cc(C(=O)O)oc23)nc1	–
1.92 nM	COc1ccc(C(=O)Nc2cc(Cl)cc3c(=O)cc(C(=O)O)oc23)c(F)c1	EC50 [2]: 6.06 nM; Emax [3]: 111%
2.18 nM	O=C(Nc1cc(Br)cc2c(=O)cc(C(=O)O)oc12)c1ccc(Cl)c(Cl)c1	EC50 [2]: 25.1 nM
98.4 nM	CCOc1ccc(C(=O)Nc2cc(Br)cc3c(=O)cc(C(=O)O)oc23)cc1	–
1.37 nM	COc1ccc(C(=O)Nc2cc(Br)cc3c(=O)cc(C(=O)O)oc23)c(F)c1	EC50 [2]: 4.45 nM; Emax [3]: 120%
25.4 nM	COc1ccc(C(=O)Nc2cc(F)cc3c(=O)cc(C(=O)O)oc23)cc1	–
228 nM	COc1ccc(C(=O)Nc2cc(Br)cc3c(=O)cc(C(=O)O)oc23)cc1OC	–
331 nM	COc1ccccc1C(=O)Nc1cc(Br)cc2c(=O)cc(C(=O)O)oc12	–
128 nM	Cc1cccc(C(=O)Nc2cc(Br)cc3c(=O)cc(C(=O)O)oc23)c1	–
5.18 nM	COc1ccc(C(=O)Nc2cc(Br)cc3c(=O)cc(C(=O)O)oc23)cc1	inhibition [16]: 65%; T1/2 [17]: 9.91 min; inhibition [18]: 85%; T1/2 [19]: 7.8 min; inhibition [20]: 90%
